Test results as given in patent US20230146239A1 (THE SCRIPPS RESEARCH INSTITUTE, priority 2020, published 2023).
In brackets after ≈: the same amount, converted by molar mass. Where two headings read alike, the source gives them in different places.

Columns and labels:
[1] = tested on: VanA VRE E. faecalis BM 4166 and E. faecium ATCC BAA-2317; conditions: previously reported; C1-vancomycin even at 100 μM; cited from earlier work
[2] = tested on: VanA E. faecium (ATCC BAA-2317); conditions: earlier trimethylammonium cation modified analogues; cited from earlier work
[3] = tested on: VanA E. faecalis BM 4166 or ATCC BAA-2573; assay: microbe, parasite or virus in culture; type: cell-based; conditions: Enterococcus faecalis, ATCCBAA2573, read-out: MIC, VanA E. faecalis
Description: (§1) The lowest concentration of antibiotic (in μg/mL) capable of eliminating cell growth in the wells is the reported MIC value.

[4] = tested on: VanA E. faecium (ATCC BAA-2317); assay: In vitro antimicrobial microdilution assay (MIC); type: cell-based, Enterococcus faecium
Description: as §1

[5] = tested on: VanA E. faecalis (BM 4166); conditions: earlier trimethylammonium cation modified analogues; cited from earlier work
VanA E. faecium (TX2465) = assay: In vitro antimicrobial microdilution assay (MIC); type: cell-based, Enterococcus faecium; conditions: Enterococcus faecium; read-out: MIC, VanA E. faecium TX2465
Description: as §1

VanA VRE, 4 strains = assay: Antimicrobial activity against VanA VRE panel (4 strains), summarised in text; type: cell-based, Enterococcus faecalis, Enterococcus faecium
Description: as §1

[6] = tested on: VanA E. faecalis (BM 4166); assay: In vitro antimicrobial microdilution assay (MIC); type: cell-based, Enterococcus faecalis; conditions: Enterococcus faecalis; read-out: MIC, VanA E. faecalis BM 4166
Description: as §1

[7] = tested on: VanA E. faecalis (ATCC BAA-2573); assay: In vitro antimicrobial microdilution assay (MIC); type: cell-based, Enterococcus faecalis; conditions: Enterococcus faecalis, ATCCBAA2573; read-out: MIC, VanA E. faecalis ATCC BAA-2573
Description: as §1

[8] = mice, earlier studies; cited from earlier work
[9] = mice, cited from earlier work
[10] = Mouse pharmacokinetics, iv; conditions: 10 mg/kg
Method: Plasma was obtained by centrifugation using a microcentrifuge fit with a hematocrit rotor, and obtained plasma was immediately frozen. The use of micro-sampling blood collection reduces the total blood taken from the mouse and allows a single mouse to be used for the entire time course, reducing inter-individual variability and maintaining the health of the mouse.
Drug levels were determined by mass spectrometry using an ABSciex 5500 mass spectrometer using multiple reaction monitoring. […] All PK work was conducted in the Scripps Florida vivarium which is fully AAALAC accredited. Procedures were approved by the Scripps Florida IACUC, protocol number 15-022.

[11] = Enterococcus faecium, ATCCBAA2317, read-out: MIC, VanA E. faecium ATCC BAA-2317
[12] = iv, 10 mg/kg, earlier study, listed as C1-CBP-vancomycin (4)

In the case of `CN[C@H](CC(C)C)C(=O)N[C@H]1C(=O)N[C@@H](CC(N)=O)C(=O)N[C@H]2C(=O)NC3C(=O)N[C@H](C(=O)N[C@H](C(=O)NCCC[N+](C)(C)C)c4cc(O)cc(O)c4-c4cc3ccc4O)[C@H](O)c3ccc(c(Cl)c3)Oc3cc2cc(c3OC2OC(CO)C(O)[C@H](O)[C@@H]2O[C@H]2CC(C)(N)[C@H](O)[C@H](C)O2)Oc2ccc(cc2Cl)[C@H]1O` (some centres unmarked) [Compound 3, C1-vancomycin], the “bacterial cell membrane permeabilization” value [1] is listed as “weaker”, the “MIC, VanA E. faecium ATCC BAA-2317” value [2] is listed as 31 µg/mL and the MIC [3] is listed as 63 µg/mL. For the same compound, the MIC [4, 11] was 31 µg/mL and the “MIC, VanA E. faecalis BM 4166” value [5] was 63 µg/mL.

With `CN[C@H](CC(C)C)C(=O)N[C@H]1C(=O)N[C@@H](CC(N)=O)C(=O)N[C@H]2C(=O)N[C@H]3C(=O)N[C@H](C(=O)N[C@H](C(=O)O)c4cc(O)c(CN[C@@H](CCCNC(=N)N)C(=O)OC)c(O)c4-c4cc3ccc4O)[C@H](O)c3ccc(c(Cl)c3)Oc3cc2cc(c3OC2OC(CO)C(O)[C@H](O)C2O[C@H]2CC(C)(N)[C@H](O)[C@H](C)O2)Oc2ccc(cc2Cl)[C@H]1O` (some centres unmarked) [Compound 27, Arg(OMe)^Ar-vancomycin] the MIC (VanA E. faecium (TX2465)) was 63 µg/mL (≈ 38.2 µM), the “less potent compared with Arg(OMe)-vancomycin (Compound 10)” value (VanA VRE, 4 strains; resistant organisms) was ≤ 8 fold and the MIC [6] was 31 µg/mL (≈ 18.8 µM). It also gave an MIC [7] of 16 µg/mL (≈ 9.7 µM) and an MIC ([4]; Enterococcus faecium, ATCCBAA2317; read-out: MIC, VanA E. faecium ATCC BAA-2317) of 8 µg/mL (≈ 4.85 µM).

In the case of `CN[C@H](CC(C)C)C(=O)N[C@H]1C(=O)N[C@@H](CC(N)=O)C(=O)N[C@H]2C(=O)NC3C(=O)N[C@H](C(=O)N[C@H](C(=O)NCCC[N+](C)(C)C)c4cc(O)cc(O)c4-c4cc3ccc4O)[C@H](O)c3ccc(c(Cl)c3)Oc3cc2cc(c3OC2OC(CO)C(O)[C@H](O)[C@@H]2O[C@H]2CC(C)(NCc3ccc(-c4ccc(Cl)cc4)cc3)[C@H](O)[C@H](C)O2)Oc2ccc(cc2Cl)[C@H]1O` (single isomer, unassigned) [Compound 4, C1-CBP-vancomycin], the MTD [8] is given as 50 mg/kg, the “bacterial cell membrane permeabilization” value [1] is given as “pronounced membrane permeabilization” and the “terminal half-life (t1/2)” value ([9]; earlier studies) is given as 5 h. The AUC [9, 12] was 81100 ng·h/mL, the CL [9, 12] was 2 mL/min/kg and the Cmax [9, 12] was 14100 ng/mL. For the same compound, the Vd [9, 12] was 1.25 L/kg, the t1/2 [9, 12] was 7.0 h and the tmax [9, 12] was 0.50 h. For the same compound, the AUC ([9]; iv, 50 mg/kg, earlier study) was 430000 ng·h/mL, the CL ([9]; iv, 50 mg/kg, earlier study) was 2 mL/min/kg and the Cmax ([9]; iv, 50 mg/kg, earlier study) was 58900 ng/mL. For the same compound, the Vd ([9]; iv, 50 mg/kg, earlier study) was 1.04 L/kg, the t1/2 ([9]; iv, 50 mg/kg, earlier study) was 6.2 h and the MIC [3] was 0.25 µg/mL. The “more potent than vancomycin” value (VanA VRE, 4 strains) was “about 1000 fold”, the MIC [4, 11] was 0.5 µg/mL and the AUC ([10]; female, CD-1, mouse, in vivo) was 48400 ng·h/mL. It also gave a Cmax ([10]; female, CD-1, mouse, in vivo) of 14500 ng/mL, a Vd ([10]; female, CD-1, mouse, in vivo) of 0.64 L/kg and a clearance ([10]; female, CD-1, mouse, in vivo) of 2 mL/min/kg. The half-life ([10]; female, CD-1, mouse, in vivo) was 5.1 h, the tmax ([10]; female, CD-1, mouse, in vivo) was 4.8 min and the “MRTlNF—obs” value ([10]; mice) was 5.6 h. For the same compound, the Vd ([10]; mice, this study) was “(0.64) L/kg”.
